In one test the test system is PD-L1 RNA expression. Nature of the test: PD-L1 RNA expression by qRT-PCR in treated NSCLC cell lines (FIG. 3, 4A). It is filed as cell-based, human. The method, then: (§1) NSCLC cell lines were procured from American Type Cell Culture (ATCC) or academic sources and cultured in RPMI 1640 medium supplemented with 10% fetal bovine serum (FBS) and 2 mM L-glutamine. Cells were detached for splitting and/or experimental analysis following a PBS wash and incubation with Accutase detachment medium (Sigma). Cells were treated with 0.1 mM trichostatin A (“TSA,” Sigma) and/or 1 ng/mL interferon gamma (IFNγ) for 24 hours and 1 mM 5-azacitidine-dC (5-aza-dC, Sigma), for 3 days qd (i.e., once a day) or 6 days q2d (i.e., every other day).
(§2) Buffer RLT Plus (Qiagen) was used to lyse the cells for RNA and DNA extraction from the same lysate using the AllPrep DNA/RNA Mini Kit (Qiagen). RNA expression was analyzed by microarray on the GeneChip Human Genome U133 Plus 2.0 Array (Affymetrix) by Asuragen, Inc, and by qPCR using TaqMan Gene Expression Assays (Life Technologies). Data was analyzed using Genomics Suite (Partek), Spotfire (TIBCO), JMP (SAS), and IPA (Ingenuity). DNA was analyzed on the INFINIUM® HumanMethylation450 BeadChip (Illumina). DNA was bisulfite-modified using the Zymo DNA Gold Methylation kit (Zymo Research) and amplified with bisulfite specific sequencing primers targeting the CD274 promoter region. PCR products were TA-subcloned and sequenced using standard methods (ABI). ABI sequence files were analyzed using BIQ Analyzer software (C. Bock).
Cells from each of the cell lines were exposed to one of five conditions: (1) no treatment; (2) treatment with 1 mM 5-azacitidine-dC (5-aza-dC, a DNA demethylation agent); (3) treatment with 0.1 mM trichostatin A (TSA, a class I and class II mammalian histone […]); (4) treatment with 1 ng/mL interferon gamma (IFNg); or (5) treatment with a combination of 5-aza-dC, TSA, and IFNg. PD-L1 RNA expression was then measured by qRT-PCR.

The next test relates to PD-L1 expression. In words: PD-L1 expression after 5-aza-dC treatment of the CGP NSCLC cell line panel (FIG. 6C, 6D). In kind it is cell-based, human. The method, then: as §1, §2
NSCLC cell lines from the Cancer Genome Project (CGP) were used to create a scatter plot directly comparing smoothened CpG1 and CpG5 methylation (M-value) on the X axis and PD-L1 expression (RNA-seq, Log 2-count) on the Y axis. […] PD-L1 baseline expression in these cell lines is highly affected by the level of promoter methylation. The CGP cell lines analyzed in FIG. 6A were then categorized into three methylation groups: (1) low (i.e., low to no methylation at both CpG1 and CpG5), (2) intermediate (i.e., CpG1 or CpG5 site methylated), or (3) high (CpG1 and CpG5 both methylated). These groups were plotted on the X axis, with basal PD-L1 expression by RNA-seq plotted on the Y and median expression shown for each group. […] Group (1) (i.e., low) had the highest median PD-L1 expression, with Group (2) (i.e., intermediate) and Group (3) (i.e., high) methylation groups showing lower median PD-L1 expression.
The cell lines in the CPG NSCLC cell line panel were then treated with 5-aza-dC in order to the effect global demethylation would have on PD-L1 expression in a dataset with a larger number of cell lines. […] Additionally, two cell lines in this panel are known to have been raised from two separate samples from one patient, H1993 (low) and H2073 (intermediate).

For `Nc1ncn([C@H]2C[C@H](O)[C@@H](CO)O2)c(=O)n1` [5-aza-dC, 5-azacitidine-dC], the “PD-L1 RNA expression” value is listed as “increased” with PD-L1 RNA expression (A427 (high methylation), 3 days of 5-aza-dC treatment); “increased” in the test with PD-L1 RNA expression (H322T (medium methylation), 3 days of 5-aza-dC treatment); “increased” in the test on PD-L1 RNA expression (H661 (high methylation at CpG1 and CpG5), 3 days of 5-aza-dC treatment); “increased” with PD-L1 RNA expression (LXFL529 (high methylation), 3 days of 5-aza-dC treatment). For the same molecule, the PD-L1 expression entry was “significantly induced” in the test with PD-L1 expression (CGP NSCLC cell line panel treated with 5-aza-dC), “no significant changes” in the test with PD-L1 expression (H1993 (low methylation) following 5-aza-dC treatment) and “significant PD-L1 expression induction” with PD-L1 expression (H2073 (intermediate methylation) following 5-aza-dC treatment). Moreover, in the test with PD-L1 expression (only Group (3) (high methylation) cell lines, 5-aza-dC), the “induction of methylation-suppressed PD-L1 expression” value was “significant induction”.
With `CC(/C=C/C(=O)NO)=C\[C@@H](C)C(=O)c1ccc(N(C)C)cc1` [TSA, trichostatin A], the “PD-L1 RNA expression” value in the test on PD-L1 RNA expression (H322T only, of H661, LXFL529, A427, H2073, H322T, H1993, 0.1 mM TSA) is reported as “increase”.

Values taken from patent US11254987B2, “PD-L1 promoter methylation in cancer” (Genentech, Inc., priority 2015, dated 2022).
